For data set [1], the target named is T1, recombinant human GST-SYK (Homo sapiens, UniProt P43405).
T1 construct: purchased Carna Biosciences 08-176
Kind of data set: Homogeneous Time-Resolved Fluorescence (HTRF) assay for the recombinant human Syk enzyme. The data set is classed as biochemical. To be noted: GST-hSYK 5 pM, ATP 25 μM. The gist of the method: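 HTRF read-out, via Europium anti-phosphotyrosine antibody and SA-APC added with EDTA, measured phosphorylation of a 250 nM biotinylated substrate after 45 min at room temperature with 25 μM ATP and 5 mM magnesium. Enzyme was 5 pM GST-hSYK, preincubated 10 min with compound in Tris pH 7.5 buffer containing DTT.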

For data set [2] the following is noted: phase II clinical trial, allergic rhinitis; cited from earlier work.
For data set [3], the system named is PGD2. Conditions: dosed intranasally, phase I/II study, allergic rhinitis; cited from earlier work.
Setting [4] is: IC50 rated in classes, read-out: rhSYK Activity.

Several values for one entry are separate records, joined by “and”; a condition that tells them apart may be missing. Equal values may be shown once. Read-outs that look alike come from different tables or passages of the source. Where only a bound is given, the exact number is not on record here.

For `Cc1cc(Nc2nccc(C(F)(F)F)n2)cc(-c2ccc(-c3ccc(C(=O)O)cc3)nn2)c1` [Example 3.33, 4-[6-(3-methyl-5-{[4-(trifluoromethyl)pyrimidin-2-yl]amino}phenyl)pyridazin-3-yl]benzoic acid], in data set [1] (setting [4]), the IC50 was below 100 nM.
Same read-out and setting: to `Cc1cc(Nc2nccc(C(F)(F)F)n2)cc(-c2ccc(OC(C)(C)C(=O)O)nn2)c1` [Example 3.34, 2-methyl-2-{[6-(3-methyl-5-{[4-(trifluoromethyl)pyrimidin-2-yl]amino}phenyl)pyridazin-3-yl]oxy}propanoic acid] belongs below 100 nM.
Still for that read-out and setting: to `Cc1cc(Nc2nccc(C(F)(F)F)n2)cc(-c2ccc(N(CCN(C)C)C(=O)N(C)C)nn2)c1` [Example 3.35, 1-[2-(dimethylamino)ethyl]-3,3-dimethyl-1-[6-(3-methyl-5-{[4-(trifluoromethyl)pyrimidin-2-yl]amino}phenyl)pyridazin-3-yl]urea] belongs 100 to 1000 nM.
`Cc1cc(Nc2nccc(C(F)(F)F)n2)cc(-c2ccc(C(C)(C)O)nn2)c1` [Example 3.36, 2-[6-(3-methyl-5-{[4-(trifluoromethyl)pyrimidin-2-yl]amino}phenyl)pyridazin-3-yl]propan-2-ol]: the IC50 in data set [1] (setting [4]) lay in the range of 100 to 1000 nM.
The same measure, in the same setting: to `Cc1cc(Nc2nccc(C(F)(F)F)n2)cc(-c2ccc(N3CCC(C(=O)O)CC3)nn2)c1` [Example 3.37, 1-[6-(3-methyl-5-{[4-(trifluoromethyl)pyrimidin-2-yl]amino}phenyl)pyridazin-3-yl]piperidine-4-carboxylic acid] belongs below 100 nM.
Regarding `Cc1cc(Nc2nccc(C(F)(F)F)n2)cc(-c2ccc(N(C)CC(=O)O)nn2)c1` [Example 3.38, N-methyl-N-[6-(3-methyl-5-{[4-(trifluoromethyl)pyrimidin-2-yl]amino}phenyl)pyridazin-3-yl]glycine], in data set [1] (setting [4]), the IC50 is below 100 nM.
As to `Cc1cc(Nc2nccc(C(F)(F)F)n2)cc(-c2ccc(CCC(=O)O)nn2)c1` [Example 3.39, 3-[6-(3-methyl-5-{[4-(trifluoromethyl)pyrimidin-2-yl]amino}phenyl)pyridazin-3-yl]propanoic acid], the IC50 in data set [1] (setting [4]) is below 100 nM.
Still for that read-out and setting: to `CCOC(=O)CCc1ccc(-c2cc(C)cc(Nc3nccc(C)n3)c2)nn1` [Example 3.40, ethyl 3-(6-{3-methyl-5-[(4-methylpyrimidin-2-yl)amino]phenyl}pyridazin-3-yl)propanoate] belongs 100 to 1000 nM; to `Cc1cc(Nc2nccc(C)n2)cc(-c2ccc(CCC(=O)O)nn2)c1` [Example 3.41, 3-(6-{3-methyl-5-[(4-methylpyrimidin-2-yl)amino]phenyl}pyridazin-3-yl)propanoic acid], 100 to 1000 nM; to `CCOC(=O)CCc1ccc(-c2cc(C)cc(Nc3nccc(C4CC4)n3)c2)nn1` [Example 3.42, ethyl 3-(6-{3-[(4-cyclopropylpyrimidin-2-yl)amino]-5-methylphenyl}pyridazin-3-yl)propanoate], 100 to 1000 nM.
In the case of `Cc1cc(Nc2nccc(C(F)(F)F)n2)cc(-c2ccnnc2)c1` [Example 3.43, N-(3-methyl-5-pyridazin-4-ylphenyl)-4-(trifluoromethyl)pyrimidin-2-amine], the IC50 in data set [1] (setting [4]) lay within 100 to 1000 nM.
For the compound `CCOC(=O)CCc1cc(-c2cccc(Nc3nccc(C(F)(F)F)n3)c2)ncn1` [Example 3.44, ethyl 3-[6-(3-{[4-(trifluoromethyl)pyrimidin-2-yl]amino}phenyl)pyrimidin-4-yl]propanoate], in data set [1] (setting [4]), the IC50 was in the range of 1000 to 10000 nM.
Still for that read-out and setting: to `O=C(O)CCc1cc(-c2cccc(Nc3nccc(C(F)(F)F)n3)c2)ncn1` [Example 3.45, 3-[6-(3-{[4-(trifluoromethyl)pyrimidin-2-yl]amino}phenyl)pyrimidin-4-yl]propanoic acid] belongs 100 to 1000 nM; to `COc1ccnc(Nc2cc(C)cc(-c3cc(CCC(=O)O)ncn3)c2)n1` [Example 3.47, 3-(6-{3-[(4-methoxypyrimidin-2-yl)amino]-5-methylphenyl}pyrimidin-4-yl)propanoic acid], 100 to 1000 nM.
Still for that read-out and setting: to `Cc1cc(Nc2nccc(C(F)(F)F)n2)cc(-c2ccncn2)c1` [Example 3.48, N-(3-methyl-5-pyrimidin-4-ylphenyl)-4-(trifluoromethyl)pyrimidin-2-amine] belongs 100 to 1000 nM.
Consider `CCOC(=O)CCc1cc(-c2cc(C)cc(Nc3nccc(C(F)(F)F)n3)c2)ncn1` [Example 3.49, ethyl 3-[6-(3-methyl-5-{[4-(trifluoromethyl)pyrimidin-2-yl]amino}phenyl)pyrimidin-4-yl]propanoate], for which the IC50 in data set [1] (setting [4]) lay in the range of 100 to 1000 nM.
Same read-out and setting: to `Cc1cc(Nc2nccc(C(F)(F)F)n2)cc(-c2cc(CCC(=O)O)ncn2)c1` [Example 3.50, 3-[6-(3-methyl-5-{[4-(trifluoromethyl)pyrimidin-2-yl]amino}phenyl)pyrimidin-4-yl]propanoic acid] belongs 100 to 1000 nM; to `CCOC(=O)CCc1cc(-c2cc(C)cc(Nc3nccc(C)n3)c2)ncn1` [Example 3.51, ethyl 3-(6-{3-methyl-5-[(4-methylpyrimidin-2-yl)amino]phenyl}pyrimidin-4-yl)propanoate], 1000 to 10000 nM.
The same measure, in the same setting: to `Cc1cc(Nc2nccc(C)n2)cc(-c2cc(CCC(=O)O)ncn2)c1` [Example 3.52, 3-(6-{3-methyl-5-[(4-methylpyrimidin-2-yl)amino]phenyl}pyrimidin-4-yl)propanoic acid] belongs 1000 to 10000 nM; to `CCOC(=O)CCc1cc(-c2cc(C)cc(Nc3nccc(C4CC4)n3)c2)ncn1` [Example 3.53, ethyl 3-(6-{3-[(4-cyclopropylpyrimidin-2-yl)amino]-5-methylphenyl}pyrimidin-4-yl)propanoate], 100 to 1000 nM.
The same measure, in the same setting: to `Cc1cc(Nc2nccc(C3CC3)n2)cc(-c2cc(CCC(=O)O)ncn2)c1` [Example 3.54, 3-(6-{3-[(4-cyclopropylpyrimidin-2-yl)amino]-5-methylphenyl}pyrimidin-4-yl)propanoic acid] belongs 100 to 1000 nM; to `Cc1cc(Nc2nccc(C)n2)cc(-c2cnc(CCC(=O)O)nc2)c1` [Example 3.55, 3-(5-{3-methyl-5-[(4-methylpyrimidin-2-yl)amino]phenyl}pyrimidin-2-yl)propanoic acid], 100 to 1000 nM and < 100 nM; to `Cc1cc(Nc2nccc(C3CC3)n2)cc(-c2cnc(CCC(=O)O)nc2)c1` [Example 3.57, 3-(5-{3-[(4-cyclopropylpyrimidin-2-yl)amino]-5-methylphenyl}pyrimidin-2-yl)propanoic acid], below 100 nM.
In the case of `Cc1cc(Nc2nccc(C(F)(F)F)n2)cc(-c2cnc(OC3CCC(C(=O)O)CC3)nc2)c1` (centres unmarked) [Example 3.58, 4-{[5-(3-methyl-5-{[4-(trifluoromethyl)pyrimidin-2-yl]amino}phenyl)pyrimidin-2-yl]oxy}cyclohexanecarboxylic acid], the IC50 in data set [1] (setting [4]) is below 100 nM.
With `Cc1cc(Nc2nccc(C(F)(F)F)n2)cc(-c2cnc(OC3CCC(C(=O)O)CC3)nc2)c1` (centres unmarked) [Example 3.59, 4-{[5-(3-methyl-5-{[4-(trifluoromethyl)pyrimidin-2-yl]amino}phenyl)pyrimidin-2-yl]oxy}cyclohexanecarboxylic acid], in data set [1] (setting [4]), the IC50 was below 100 nM.
`Cc1cc(Nc2nccc(C(F)(F)F)n2)cc(-c2cnc(OC3CCC(C(=O)O)CC3)nc2)c1` (centres unmarked) [Example 3.60, 4-{[5-(3-methyl-5-{[4-(trifluoromethyl)pyrimidin-2-yl]amino}phenyl)pyrimidin-2-yl]oxy}cyclohexanecarboxylic acid]: the IC50 in data set [1] (setting [4]) was below 100 nM.
Consider `Cc1cc(Nc2nccc(C)n2)cc(-c2cnc(CCC(=O)O)nc2)c1` [Example 3.61, 3-(5-{3-methyl-5-[(4-methylpyrimidin-2-yl)amino]phenyl}pyrimidin-2-yl)propanoic acid], for which the IC50 in data set [1] (setting [4]) is 100 to 1000 nM and < 100 nM.
Same read-out and setting: to `Cc1cc(Nc2nccc(C(F)(F)F)n2)cc(-c2cnc(CCC(=O)O)nc2)c1` [Example 3.62, 3-[5-(3-methyl-5-{[4-(trifluoromethyl)pyrimidin-2-yl]amino}phenyl)pyrimidin-2-yl]propanoic acid] belongs below 100 nM.
Take `Cc1cc(Nc2nccc(C(F)(F)F)n2)cc(-c2cnc(NC3(C(N)=O)CC3)nc2)c1` [Example 4.1, 1-{[5-(3-methyl-5-{[4-(trifluoromethyl)pyrimidin-2-yl]amino}phenyl)pyrimidin-2-yl]amino}cyclopropanecarboxamide]: the IC50 in data set [1] (setting [4]) is below 100 nM; in data set [1] (values in text, read-out: IC50) it was 21.6 nM.
Take `Cc1cc(Nc2nccc(C(F)F)n2)cc(-c2cnc(C[C@H]3CC[C@H](C(=O)O)CC3)nc2)c1` [Example 5.1, trans-4-{[5-(3-{[4-(difluoromethyl)pyrimidin-2-yl]amino}-5-methylphenyl)pyrimidin-2-yl]methyl}cyclohexanecarboxylic acid]: the IC50 is below 100 nM in data set [1] (setting [4]) and 2.9 nM in data set [1] (values in text, read-out: IC50).
For `Oc1cccc(Nc2ncc(F)c(Nc3cccc(O)c3)n2)c1` [Example R112], the efficacy versus placebo entry in data set [2] is listed as “lack of efficacy versus placebo”. Further, in data set [3], the clinical safety result is given as “safe across a range of indicators” and the “decrease in PGD2” value is given as “statistically significant decrease in PGD2”.
